The target in the experiment is His-Tagged hOGA (Homo sapiens (Human), UniProt O60502). The experiment can be described thus: Human O-GlcNAcase enzyme inhibition assay. It is filed as biochemical. To be noted: FL-GlcNAc substrate, 60 min at room temperature, pH 6.5; read-out: OGA IC50. The protocol:
Example B01: Human O-GlcNAcase Enzyme Inhibition Assay
5 μl of the appropriate concentration of a solution of inhibitor in Mcllvaine's Buffer (pH 6.5) in 2% DMSO (for a dose response curve calculation) is added into each well of a 384-well plate (Greiner, 781900). Then, 20 nM of His-Tagged hOGA and 10 μM of FL-GlcNAc (Fluorescein mono-beta-D-(2-deoxy-2-N-acetyl) glucopyranoside; Marker Gene Technologies Inc, M1485) were added to the 384-well plate for a final volume of 20 μl. After incubation for 60 min at room temperature, the reaction was terminated by the addition of 10 μL of stop buffer (200 mM glycine, pH 10.75).

Molecules are shown by their SMILES.

Chain of His-Tagged hOGA (O60502 whole entry): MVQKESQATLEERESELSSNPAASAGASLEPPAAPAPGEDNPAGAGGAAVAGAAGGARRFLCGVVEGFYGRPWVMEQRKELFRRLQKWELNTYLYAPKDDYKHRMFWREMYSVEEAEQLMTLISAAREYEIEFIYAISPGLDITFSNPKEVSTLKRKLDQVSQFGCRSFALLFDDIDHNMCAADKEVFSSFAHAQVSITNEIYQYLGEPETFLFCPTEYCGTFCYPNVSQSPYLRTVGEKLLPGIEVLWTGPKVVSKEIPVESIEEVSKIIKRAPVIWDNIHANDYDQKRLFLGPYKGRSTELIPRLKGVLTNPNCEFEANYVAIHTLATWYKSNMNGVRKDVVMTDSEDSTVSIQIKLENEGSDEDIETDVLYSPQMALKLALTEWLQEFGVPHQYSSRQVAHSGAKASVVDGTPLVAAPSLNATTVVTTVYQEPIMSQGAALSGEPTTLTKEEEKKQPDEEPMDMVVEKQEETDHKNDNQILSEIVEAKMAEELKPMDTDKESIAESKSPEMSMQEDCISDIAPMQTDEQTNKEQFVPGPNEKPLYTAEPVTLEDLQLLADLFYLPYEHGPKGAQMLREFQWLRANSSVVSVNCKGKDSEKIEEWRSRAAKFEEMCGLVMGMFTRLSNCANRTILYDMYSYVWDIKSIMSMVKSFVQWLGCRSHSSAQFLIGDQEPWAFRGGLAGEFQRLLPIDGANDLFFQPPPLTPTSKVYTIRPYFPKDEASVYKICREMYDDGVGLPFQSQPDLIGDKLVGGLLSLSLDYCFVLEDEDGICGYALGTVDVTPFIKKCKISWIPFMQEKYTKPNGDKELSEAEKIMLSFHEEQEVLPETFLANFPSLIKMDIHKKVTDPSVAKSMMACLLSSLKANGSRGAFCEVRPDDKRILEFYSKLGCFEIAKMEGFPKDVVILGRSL

The term IC50 denotes the concentration needed to halve the response being measured. In the case of `CC(=O)Nc1nnc(N2CCN(C(C)c3ccc4c(c3)OC(C)C4)CC2)s1` (racemic) [Example 1, N-(5-(4-(1-(2-methyl-2,3-dihydrobenzofuran-6-yl)ethyl)piperazin-1-yl)-1,3,4-thiadiazol-2-yl)acetamide], the IC50 is less than 50 nM.

Consider `CC1Cc2ccc(C(C)N3CCN(c4ncc5c(n4)CCNC5=O)CC3)cc2O1` (racemic) [Example 2, 2-(4-(1-(2-methyl-2,3-dihydrobenzofuran-6-yl)ethyl)piperazin-1-yl)-7,8-dihydropyrido[4,3-d]pyrimidin-5(6H)-one], for which the IC50 was less than 50 nM. Next, `CC1Cc2ccc(C(C)N3CCN(c4ncc(S(C)(=N)=O)cn4)CC3)cc2O1` (racemic) [Example 3, Imino(methyl)(2-(4-(1-(2-methyl-2,3-dihydrobenzofuran-6-yl)ethyl)piperazin-1-yl)pyrimidin-5-yl)-λ^6-sulfanone]: less than 50 nM.

Consider `CC(=O)Nc1nnc(N2CCN(C(C)c3ccc4c(c3)OC(C)(C)C4)CC2)s1` (racemic) [Example 4, N-(5-(4-(1-(2,2-dimethyl-2,3-dihydrobenzofuran-6-yl)ethyl)piperazin-1-yl)-1,3,4-thiadiazol-2-yl)acetamide], for which the IC50 lay within 1000 to 10000 nM. Next, `CC(c1ccc2c(c1)OC(C)(C)C2)N1CCN(c2ncc(S(C)(=N)=O)cn2)CC1` (racemic) [Example 5, (2-(4-(1-(2,2-dimethyl-2,3-dihydrobenzofuran-6-yl)ethyl)piperazin-1-yl)pyrimidin-5-yl)(imino)(methyl)-λ^6-sulfanone]: 1000 to 10000 nM; `CC(c1ccc2c(c1)OC(C)(C)C2)N1CCN(c2ncc3c(n2)CCNC3=O)CC1` (racemic) [Example 6, 2-(4-(1-(2,2-dimethyl-2,3-dihydrobenzofuran-6-yl)ethyl)piperazin-1-yl)-7,8-dihydropyrido[4,3-d]pyrimidin-5(6H)-one]: 1000 to 10000 nM; `CC1Cc2ccc(C(C)N3CCN(c4ccc(S(C)(=O)=O)cc4)CC3)cc2O1` (racemic) [Example 7, 1-(1-(2-methyl-2,3-dihydrobenzofuran-6-yl)ethyl)-4-(4-(methylsulfonyl)phenyl)piperazine]: 50 to 200 nM. With `CC(=O)Nc1nnc(N2CCN(C(C)c3cnc4c(c3)OC(C)C4)CC2)s1` (racemic) [Example 8, N-(5-(4-(1-(2-methyl-2,3-dihydrofuro[3,2-b]pyridin-6-yl)ethyl)piperazin-1-yl)-1,3,4-thiadiazol-2-yl)acetamide], the IC50 was in the range of 200 to 1000 nM.

With `CC(=O)Nc1nnc(N2CCN(C(C)c3ccc4c(c3)O[C@H](C)C4)CC2)s1` (single isomer, unassigned) [Example 11], the IC50 was 200 to 1000 nM.

Take `CC(=O)Nc1nnc(N2CCN(C(C)c3ccc4c(c3)O[C@H](C)C4)CC2)s1` (single isomer, unassigned) [Example 12]: the IC50 is less than 50 nM. Next, `CC(c1ccc2c(c1)O[C@H](C)C2)N1CCN(c2ncc3c(n2)CCNC3=O)CC1` (single isomer, unassigned) [Example 13, 2-(4-((S)-1-((R)-2-methyl-2,3-dihydrobenzofuran-6-yl)ethyl)piperazin-1-yl)-7,8-dihydropyrido[4,3-d]pyrimidin-5(6H)-one or 2-(4-((R)-1-((R)-2-methyl-2,3-dihydrobenzofuran-6-yl)ethyl)piperazin-1-yl)-7,8-dihydropyrido[4,3-d]pyrimidin-5(6H)-one]: less than 50 nM; `CC(=O)Nc1nnc(N2CCN(C(C)c3ccc4c(c3)O[C@@H](C)C4)CC2)s1` (single isomer, unassigned) [Example 16]: 200 to 1000 nM; `CC(=O)Nc1nnc(N2CCN(C(C)c3ccc4c(c3)O[C@@H](C)C4)CC2)s1` (single isomer, unassigned) [Example 17]: 50 to 200 nM.

For the molecule `CC(c1ccc2c(c1)O[C@@H](C)C2)N1CCN(c2ncc3c(n2)CCNC3=O)CC1` (single isomer, unassigned) [Example 18, 2-(4-((S)-1-((S)-2-methyl-2,3-dihydrobenzofuran-6-yl)ethyl)piperazin-1-yl)-7,8-dihydropyrido[4,3-d]pyrimidin-5(6H)-one or 2-(4-((R)-1-((S)-2-methyl-2,3-dihydrobenzofuran-6-yl)ethyl)piperazin-1-yl)-7,8-dihydropyrido[4,3-d]pyrimidin-5(6H)-one], the IC50 is 50 to 200 nM.

Turning to `CC(=O)Nc1nnc(N2CCN(C(C)c3ccc4c(c3)O[C@H](C)C4)CC2)s1` (stereo partly drawn) [Example 9, N-(5-(4-(1-((R)-2-methyl-2,3-dihydrobenzofuran-6-yl)ethyl)piperazin-1-yl)-1,3,4-thiadiazol-2-yl)acetamide], the IC50 was less than 50 nM. To `CC(c1ccc2c(c1)O[C@H](C)C2)N1CCN(c2ncc3c(n2)CCNC3=O)CC1` (stereo partly drawn) [Example 10, 2-(4-(1-((R)-2-methyl-2,3-dihydrobenzofuran-6-yl)ethyl)piperazin-1-yl)-7,8-dihydropyrido[4,3-d]pyrimidin-5(6H)-one] belongs less than 50 nM. To `CC(=O)Nc1nnc(N2CCN(C(C)c3ccc4c(c3)O[C@@H](C)C4)CC2)s1` (stereo partly drawn) [Example 14, N-(5-(4-(1-((S)-2-methyl-2,3-dihydrobenzofuran-6-yl)ethyl)piperazin-1-yl)-1,3,4-thiadiazol-2-yl)acetamide] belongs 200 to 1000 nM. To `CC(c1ccc2c(c1)O[C@@H](C)C2)N1CCN(c2ncc3c(n2)CCNC3=O)CC1` (stereo partly drawn) [Example 15, 2-(4-(1-((S)-2-methyl-2,3-dihydrobenzofuran-6-yl)ethyl)piperazin-1-yl)-7,8-dihydropyrido[4,3-d]pyrimidin-5(6H)-one] belongs 200 to 1000 nM; to `CC(c1ccc2c(c1)O[C@H](C)C2)N1CCN(c2ncc(S(C)(=O)=O)cn2)CC1` (stereo partly drawn) [Example 19, 2-(4-(1-((R)-2-methyl-2,3-dihydrobenzofuran-6-yl)ethyl)piperazin-1-yl)-5-(methylsulfonyl)pyrimidine], less than 50 nM.

In the case of `CC(c1ccc2c(c1)O[C@H](C)C2)N1CCN(c2ncc(S(C)(=N)=O)cn2)CC1` (stereo partly drawn) [Example 20, imino(methyl)(2-(4-(1-((R)-2-methyl-2,3-dihydrobenzofuran-6-yl)ethyl)piperazin-1-yl)pyrimidin-5-yl)-λ^6-sulfanone], the IC50 is less than 50 nM.

`CC(c1ccc2c(c1)O[C@H](C)C2)N1CCN(c2n[nH]c(=O)s2)CC1` (stereo partly drawn) [Example 21, 5-(4-(1-((R)-2-methyl-2,3-dihydrobenzofuran-6-yl)ethyl)piperazin-1-yl)-1,3,4-thiadiazol-2(3H)-one]: the IC50 lay in the range of 50 to 200 nM.
